The term IC50 denotes the concentration that gives 50% inhibition.

We go through 25 compounds from patent US10899738B2 (THE REGENTS OF THE UNIVERSITY OF MICHIGAN, priority 2016, dated 2021).

In this assay the target is menin protein (Homo sapiens (Human), UniProt O00255). The experiment in a line: biochemical. It is filed as binding. The note with it: FP competitive binding, menin protein 4 nM, FAM-MM2 probe 2 nM; for IC50: read-out: Menin Binding Affinity IC50. The method, then:
A fluorescence polarization (FP) competitive binding assay was used to determine the binding affinities of representative menin inhibitors. A FAM labeled fluorescent probe was designed and synthesized based on a MLL1 peptide (FAM-MM2). Equilibrium dissociation constant (Kd) value of FAM-MM2 to menin protein was determined from protein saturation experiments by monitoring the total fluorescence polarization of mixtures composed with the fluorescent probe at a fixed concentration and the protein with increasing concentrations up to full saturation. Serial dilutions of the protein were mixed with FAM-MM2 to a final volume of 200 μl in the assay buffer (PBS with 0.02% Bovine γ-Globulin and 4% DMSO. 0.01% Triton X-100 was added right before assays). Final FAM-MM2 concentration was 2 nM. Plates were incubated at room temperature for 30 minutes with gentle shaking to assure equilibrium.
The IC50, see Table 3, and Ki values of representative Compounds of the Disclosure were determined in a competitive binding experiment. Mixtures of 5 μl of the tested compounds in DMSO and 195 μl of preincubated protein/probe complex solution in the assay buffer were added into assay plates which were incubated at room temperature for 30 minutes with gentle shaking. Final concentration of the menin protein was 4 nM, and final probe concentration is 2 nM. […] FP values were measured as described above. IC50 values were determined by nonlinear regression fitting of the competition curves.

Structures are written as SMILES.

Chain of menin protein (O00255 whole entry): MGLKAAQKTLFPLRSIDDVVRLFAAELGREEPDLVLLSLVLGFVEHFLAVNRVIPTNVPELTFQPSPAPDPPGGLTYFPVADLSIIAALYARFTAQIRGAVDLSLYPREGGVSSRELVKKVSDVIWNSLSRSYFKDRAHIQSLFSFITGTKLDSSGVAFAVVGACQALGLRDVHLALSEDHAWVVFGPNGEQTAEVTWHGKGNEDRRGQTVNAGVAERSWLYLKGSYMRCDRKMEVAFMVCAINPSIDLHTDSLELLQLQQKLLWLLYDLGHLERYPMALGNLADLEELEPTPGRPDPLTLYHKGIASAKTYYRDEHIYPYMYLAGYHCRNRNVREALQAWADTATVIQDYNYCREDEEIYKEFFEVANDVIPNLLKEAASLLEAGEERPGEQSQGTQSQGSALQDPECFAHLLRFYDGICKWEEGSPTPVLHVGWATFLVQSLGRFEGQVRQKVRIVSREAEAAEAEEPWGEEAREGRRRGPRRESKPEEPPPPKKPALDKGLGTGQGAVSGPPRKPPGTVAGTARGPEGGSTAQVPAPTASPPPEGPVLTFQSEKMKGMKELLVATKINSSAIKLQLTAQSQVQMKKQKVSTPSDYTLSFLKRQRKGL

In the case of `COC(=O)N[C@@H]1CCC[C@H]1C(C#N)(c1ccccc1)C1CCN(CC2CN(c3ccc(S(=O)(=O)c4ccc(C(=O)O)cc4)cc3)C2)CC1` (mixture of isomers) [compound 352, rac-4-((4-(3-((4-(cyano((1S,2R)-2-((methoxycarbonyl)amino)cyclopentyl)(phenyl)methyl)piperidin-1-yl)methyl)azetidin-1-yl)phenyl)sulfonyl)benzoic acid], the IC50 worked out at 2.7 µM. On the same count and under the same terms, the value for `O=S(=O)(c1ccc(OC2CC(N3CCC(C4(C5CCCC5)NCCc5ccccc54)CC3)C2)cc1)C1CC1` (stereo not shown) [compound 90, 1-cyclopentyl-1-(1-((1r,3r)-3-(4-(cyclopropylsulfonyl)phenoxy)cyclobutyl)piperidin-4-yl)-1,2,3,4-tetrahydroisoquinoline] was 2.4 µM; that for `COC(=O)N[C@H]1CCC[C@@H]1C(C#N)(c1ccccc1)C1CCN(CC2CN(c3ccccc3)C2)CC1` (mixture of isomers) [compound 402, methyl rac-((1S,2R)-2-(cyano(phenyl)(1-((1-phenylazetidin-3-yl)methyl)piperidin-4-yl)methyl)cyclopentyl) carbamate] was 2.4 µM; that for `CNC(=O)C[C@H]1CCC[C@@H]1C(C#N)(c1ccccc1)C1CCN(CC2CN(c3ccc(S(=O)(=O)c4ccncc4)cc3)C2)CC1` (mixture of isomers) [compound 340, rac-2-((1R,2S)-2-(cyano(phenyl)(1-((1-(4-(pyridin-4-ylsulfonyl)phenyl)azetidin-3-yl)methyl)piperidin-4-yl)methyl)cyclopentyl)-N-methylacetamide] was 2.9 µM.

In the case of `N#CC(c1ccccc1)(C1CCN(CC2CN(c3ccc(S(=O)(=O)c4ccncc4)cc3)C2)CC1)[C@H]1CCC[C@@H]1CO` (mixture of isomers) [compound 258, rac-2-((1S,2S)-2-(hydroxymethyl)cyclopentyl)-2-phenyl-2-(1-((1-(4-(pyridin-4-ylsulfonyl)phenyl)azetidin-3-yl)methyl)piperidin-4-yl)acetonitrile], the IC50 amounted to 0.563 µM. For `CNC(=O)N[C@@H]1CCC[C@H]1C(CN)(c1ccccc1)C1CCN(CC2CN(c3ccc(S(=O)(=O)c4ccccc4)cc3)C2)CC1` (mixture of isomers) [compound 322, rac-1-((1R,2S)-2-(2-amino-1-phenyl-1-(1-((1-(4-(phenylsulfonyl)phenyl)azetidin-3-yl)methyl)piperidin-4-yl)ethyl)cyclopentyl)-3-methylurea], the IC50 came out at 0.108 µM.

With `CC(=O)O[C@H]1CCC[C@@H]1C(C#N)(c1ccccc1)C1CCN(CC2CN(c3ccc(C(=O)O)cc3)C2)CC1` (mixture of isomers) [compound 388, rac-4-(3-((4-(((1R,2S)-2-acetoxycyclopentyl)(cyano) (phenyl)methyl)piperidin-1-yl)methyl)azetidin-1-yl)benzoic acid], the half-maximal inhibitory concentration (IC50) was found to be 15.1 µM. The same measure, in the same setting: the value for `CNC(=O)O[C@@H]1CCC[C@H]1C(C#N)(c1ccccc1)C1CCN(CC2CN(c3ccc(S(=O)(=O)c4ccn(C)n4)cc3)C2)CC1` (mixture of isomers) [compound 231] was 0.068 µM; that for `O=C(CN1CCC(C2(C3CCCC3)NCCc3ccccc32)CC1)N1CCCC1` (stereo not shown) [compound 74, 2-(4-(1-cyclopentyl-1,2,3,4-tetrahydroisoquinolin-1-yl)piperidin-1-yl)-1-(pyrrolidin-1-yl)ethan-1-one] was 3.1 µM. Still for that read-out and setting: next, `CC(=O)O[C@H]1CCC[C@@H]1C(C#N)(c1cccc(C(F)(F)F)c1)C1CCN(CC2CN(c3ccc(C#N)cc3)C2)CC1` (mixture of isomers) [compound 417, rac-(1S,2R)-2-(cyano(1-((1-(4-cyanophenyl)azetidin-3-yl)methyl)piperidin-4-yl)(3-(trifluoromethyl)phenyl)methyl)cyclopentyl acetate]: 1.61 µM; `CNC(=O)O[C@@H]1CCC[C@H]1C(Cn1cccc1)(c1ccccc1)C1CCN(CC2CN(c3ccc(S(=O)(=O)c4ccccc4)cc3)C2)CC1` (mixture of isomers) [compound 358, rac-(1R,2S)-2-(1-phenyl-1-(1-((1-(4-(phenylsulfonyl)phenyl)azetidin-3-yl)methyl)piperidin-4-yl)-2-(1H-pyrrol-1-yl)ethyl)cyclopentyl methylcarbamate]: 0.221 µM. The same measure, in the same setting: next, `CN(C)C(=O)O[C@H]1CCC[C@@H]1C(C#N)(c1ccccc1)C1CCN(CC2CN(c3ccc(S(=O)(=O)c4ccncc4)cc3)C2)CC1` (mixture of isomers) [compound 220, rac-(1S,2R)-2-(cyano(phenyl)(1-((1-(4-(pyridin-4-ylsulfonyl)phenyl)azetidin-3-yl)methyl)piperidin-4-yl)methyl)cyclopentyl dimethylcarbamate]: 0.261 µM. Turning to `CCN1Cc2ccccc2C(C2CCCC2)(C2CCN(S(=O)(=O)C3CN(c4ccc(S(=O)(=O)c5ccncc5)cc4)C3)CC2)C1` (stereo not shown) [compound 160, 4-cyclopentyl-2-ethyl-4-(1-((1-(4-(pyridin-4-ylsulfonyl)phenyl)azetidin-3-yl)sulfonyl)piperidin-4-yl)-1,2,3,4-tetrahydroisoquinoline], the “Menin Binding Affinity IC50 (μM)” value is “No inhibition”.

On to `CCNC(=O)O[C@@H]1CCC[C@H]1C(C#N)(c1ccccc1)C1CCN(CC2CN(c3ccc(S(=O)(=O)c4ccncc4)cc3)C2)CC1` (mixture of isomers) [compound 214, rac-(1R,2S)-2-(cyano(phenyl)(1-((1-(4-(pyridin-4-ylsulfonyl)phenyl)azetidin-3-yl)methyl)piperidin-4-yl)methyl)cyclopentyl ethylcarbamate], for which the IC50 worked out at 3.4 µM. Consider `CNC(=O)O[C@@H]1CCC[C@H]1C(C#N)(c1ccccc1)C1CCN(CC2(C)CN(c3ccc(S(=O)(=O)c4cnn(C)c4)cc3)C2)CC1` (mixture of isomers) [compound 371, rac-(1R,2S)-2-(cyano(1-((3-methyl-1-(4-((1-methyl-1H-pyrazol-4-yl)sulfonyl)phenyl)azetidin-3-yl)methyl)piperidin-4-yl)(phenyl)methyl)cyclopentyl methylcarbamate], for which the IC50 stood at 2.1 µM. Turning to `CNC(=O)O[C@H]1CCC[C@@H]1C(C#N)(c1ccccc1)C1CCN(CC2CN(c3ccc(S(=O)(=O)C4CC4)cc3)C2)CC1` (mixture of isomers) [compound 226, rac-(1S,2R)-2-(cyano(1-((1-(4-(cyclopropylsulfonyl)phenyl)azetidin-3-yl)methyl)piperidin-4-yl)(phenyl)methyl)cyclopentyl methylcarbamate], the half-inhibitory concentration (IC50) worked out at 0.014 µM. The same measure, in the same setting: the value for `CC(=O)O[C@@H]1CCC[C@H]1C(C#N)(c1ccccc1)C1CCN(CC2CN(c3ccc(S(=O)(=O)c4ccncc4)cc3)C2)CC1` (mixture of isomers) [compound 207, rac-(1R,2S)-2-(cyano(phenyl)(1-((1-(4-(pyridin-4-ylsulfonyl)phenyl)azetidin-3-yl)methyl)piperidin-4-yl)methyl)cyclopentyl acetate] was 2.8 µM; that for `N#Cc1ccc(OCCCN2CCC(C3(C4CCCC4)NCCc4ccccc43)C2)cc1` (stereo not shown) [compound 108, 4-(3-(3-(1-cyclopentyl-1,2,3,4-tetrahydroisoquinolin-1-yl)pyrrolidin-1-yl)propoxy)benzonitrile] was 56.5 µM; that for `N#Cc1ccc2c(c1)CCN(C(=O)CN1CCC(C3(C4CCCC4)NCCc4ccccc43)CC1)C2` (stereo not shown) [compound 83, 2-(2-(4-(1-cyclopentyl-1,2,3,4-tetrahydroisoquinolin-1-yl)piperidin-1-yl)acetyl)-1,2,3,4-tetrahydroisoquinoline-6-carbonitrile] was 0.847 µM. The same measure, in the same setting: next, `N#Cc1ccc(OCCCN2CCC(C3(Cc4ccccc4)NCCc4ccccc43)CC2)cc1` (stereo not shown) [compound 243, 4-(3-(4-(1-benzyl-1,2,3,4-tetrahydroisoquinolin-1-yl)piperidin-1-yl)propoxy)benzonitrile]: 4.2 µM; `CCC(=O)O[C@@H]1CCC[C@H]1C(C#N)(c1ccccc1)C1CCN(CC2CN(c3ccc(S(=O)(=O)c4ccncc4)cc3)C2)CC1` (mixture of isomers) [compound 196, rac-(1R,2S)-2-(cyano(phenyl)(1-((1-(4-(pyridin-4-ylsulfonyl)phenyl)azetidin-3-yl)methyl)piperidin-4-yl)methylcyclopentyl propionate]: 1 µM. As for `CCN1Cc2ccccc2C(C2CCCC2)(C2CCN(S(=O)(=O)C3CN(c4ccc(C#N)cc4)C3)CC2)C1` (stereo not shown) [compound 159, 4-(3-((4-(4-cyclopentyl-2-ethyl-1,2,3,4-tetrahydroisoquinolin-4-yl)piperidin-1-yl)sulfonyl)azetidin-1-yl)benzonitrile], the “Menin Binding Affinity IC50 (μM)” value is “No inhibition”.

On to `CC(COc1ccc(C#N)cc1)CN1CCC(C(C#N)(c2ccccc2)C2CCCC2)CC1` (stereo not shown) [compound 127, 4-(3-(4-(cyano(cyclopentyl)(phenyl)methyl)piperidin-1-yl)-2-methylpropoxy)benzonitrile], for which the IC50 worked out at 294 µM. In the case of `CNC(=O)O[C@@H]1CCC[C@H]1C(C#N)(c1ccccc1)C1CCN(CCCOc2ccc(C#N)cc2)CC1` (mixture of isomers) [compound 233, rac-(1R,2S)-2-(cyano(1-(3-(4-cyanophenoxy)propyl)piperidin-4-yl)(phenyl)methyl)cyclopentyl methylcarbamate], the IC50 is 0.178 µM. The same measure, in the same setting: the value for `Cc1nccn1CC(c1ccccc1)(C1CCCC1)C1CCN(CC2CN(c3ccc(S(=O)(=O)C4CC4)cc3)C2)CC1` (stereo not shown) [compound 42, 4-(1-cyclopentyl-2-(2-methyl-1H-imidazol-1-yl)-1-phenylethyl)-1-((1-(4-(cyclopropylsulfonyl)phenyl)azetidin-3-yl)methyl)piperidine] was 0.029 µM.
